Among the data in paper PMC12136037, “Type II kinase inhibitors that target Parkinson’s disease–associated LRRK2” (Science Advances, 2025) are dTm values, retold here.

Common to all, as to assay: DSF 100 kinase selectivity screen;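 further: compound tested at 20 µM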
Format in all cases: binding

Assay [1] addresses T1, ~100 representative kinases (Homo sapiens, UniProt O14965).
T1 construct: Recombinant protein kinase domains with a concentration of 2 μM
T1 sequence (O14965 1-403): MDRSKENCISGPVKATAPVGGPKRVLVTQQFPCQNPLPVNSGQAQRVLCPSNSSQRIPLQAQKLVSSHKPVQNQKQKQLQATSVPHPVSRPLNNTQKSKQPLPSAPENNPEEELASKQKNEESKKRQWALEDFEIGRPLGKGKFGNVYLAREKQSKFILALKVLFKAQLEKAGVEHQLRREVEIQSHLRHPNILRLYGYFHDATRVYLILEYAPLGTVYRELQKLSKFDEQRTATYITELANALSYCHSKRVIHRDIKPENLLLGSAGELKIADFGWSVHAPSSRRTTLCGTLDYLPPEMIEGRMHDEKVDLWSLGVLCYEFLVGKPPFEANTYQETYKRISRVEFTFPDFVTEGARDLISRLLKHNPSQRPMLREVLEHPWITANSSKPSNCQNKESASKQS
Conditions: Protein STK6; DSF; average of three replicates. As for the experimental part: (§1) Recombinant protein kinase domains with a concentration of 2 μM were mixed with a 20 μM compound solution in dimethyl sulfoxide (DMSO), 20 mM Hepes (pH 7.5), and 500 mM NaCl. SYPRO Orange (5000×, Invitrogen) was added as a fluorescence probe (1μl/ml). Subsequently, temperature-dependent protein unfolding profiles were measured using the QuantStudio 5 realtime PCR machine (Thermo Fisher Scientific, Waltham, MA, USA). […] The temperature was raised with a step rate of 3°C/min. […] Differences in melting temperature are given as ΔTm values in degrees Celsius. […]

Assay [2] has as its target T2, ~100 representative kinases (Homo sapiens, UniProt P45985).
T2 construct: Recombinant protein kinase domains with a concentration of 2 μM
T2 sequence (P45985 1-399): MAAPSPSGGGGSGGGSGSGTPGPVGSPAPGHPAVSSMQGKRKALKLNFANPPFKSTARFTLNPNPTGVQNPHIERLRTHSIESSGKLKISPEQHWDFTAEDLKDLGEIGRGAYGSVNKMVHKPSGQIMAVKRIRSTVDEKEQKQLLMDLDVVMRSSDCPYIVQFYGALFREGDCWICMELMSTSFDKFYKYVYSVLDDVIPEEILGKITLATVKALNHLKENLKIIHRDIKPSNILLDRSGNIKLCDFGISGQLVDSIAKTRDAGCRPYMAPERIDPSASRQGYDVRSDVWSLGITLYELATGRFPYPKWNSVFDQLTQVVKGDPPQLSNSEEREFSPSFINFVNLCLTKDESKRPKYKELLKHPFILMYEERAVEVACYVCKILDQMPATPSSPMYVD
Conditions: protein MAP2K4; average of three replicates. The procedure: as §1

Assay [3] addresses T3, ~100 representative kinases (Homo sapiens, UniProt Q9UEE5).
T3 construct: Recombinant protein kinase domains with a concentration of 2 μM
T3 sequence (Q9UEE5 1-414): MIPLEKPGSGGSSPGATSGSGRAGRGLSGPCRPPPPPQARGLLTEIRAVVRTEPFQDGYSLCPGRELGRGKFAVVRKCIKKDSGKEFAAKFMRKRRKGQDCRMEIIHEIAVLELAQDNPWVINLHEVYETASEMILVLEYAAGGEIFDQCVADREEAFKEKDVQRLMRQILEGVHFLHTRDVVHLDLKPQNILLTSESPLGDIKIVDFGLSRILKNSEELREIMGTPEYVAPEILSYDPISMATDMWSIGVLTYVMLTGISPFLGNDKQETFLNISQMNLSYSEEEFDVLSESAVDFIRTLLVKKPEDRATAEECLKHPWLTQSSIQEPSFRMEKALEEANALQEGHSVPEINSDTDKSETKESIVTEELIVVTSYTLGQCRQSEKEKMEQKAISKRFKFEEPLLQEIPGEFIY
Conditions: Protein STK17A; DSF; average of three replicates. As for the experimental part: as §1

Assay [4] has as its target T4, ~100 representative kinases (Homo sapiens, UniProt P49761).
T4 construct: Recombinant protein kinase domains with a concentration of 2 μM
Conditions: Protein CLK3; average of three replicates. As for the experimental part:
as §1

Assay [5] deals with T5, ~100 representative kinases (Homo sapiens, UniProt Q5VT25).
T5 construct: Recombinant protein kinase domains with a concentration of 2 μM
T5 sequence (Q5VT25 whole entry, the tested form may be a part): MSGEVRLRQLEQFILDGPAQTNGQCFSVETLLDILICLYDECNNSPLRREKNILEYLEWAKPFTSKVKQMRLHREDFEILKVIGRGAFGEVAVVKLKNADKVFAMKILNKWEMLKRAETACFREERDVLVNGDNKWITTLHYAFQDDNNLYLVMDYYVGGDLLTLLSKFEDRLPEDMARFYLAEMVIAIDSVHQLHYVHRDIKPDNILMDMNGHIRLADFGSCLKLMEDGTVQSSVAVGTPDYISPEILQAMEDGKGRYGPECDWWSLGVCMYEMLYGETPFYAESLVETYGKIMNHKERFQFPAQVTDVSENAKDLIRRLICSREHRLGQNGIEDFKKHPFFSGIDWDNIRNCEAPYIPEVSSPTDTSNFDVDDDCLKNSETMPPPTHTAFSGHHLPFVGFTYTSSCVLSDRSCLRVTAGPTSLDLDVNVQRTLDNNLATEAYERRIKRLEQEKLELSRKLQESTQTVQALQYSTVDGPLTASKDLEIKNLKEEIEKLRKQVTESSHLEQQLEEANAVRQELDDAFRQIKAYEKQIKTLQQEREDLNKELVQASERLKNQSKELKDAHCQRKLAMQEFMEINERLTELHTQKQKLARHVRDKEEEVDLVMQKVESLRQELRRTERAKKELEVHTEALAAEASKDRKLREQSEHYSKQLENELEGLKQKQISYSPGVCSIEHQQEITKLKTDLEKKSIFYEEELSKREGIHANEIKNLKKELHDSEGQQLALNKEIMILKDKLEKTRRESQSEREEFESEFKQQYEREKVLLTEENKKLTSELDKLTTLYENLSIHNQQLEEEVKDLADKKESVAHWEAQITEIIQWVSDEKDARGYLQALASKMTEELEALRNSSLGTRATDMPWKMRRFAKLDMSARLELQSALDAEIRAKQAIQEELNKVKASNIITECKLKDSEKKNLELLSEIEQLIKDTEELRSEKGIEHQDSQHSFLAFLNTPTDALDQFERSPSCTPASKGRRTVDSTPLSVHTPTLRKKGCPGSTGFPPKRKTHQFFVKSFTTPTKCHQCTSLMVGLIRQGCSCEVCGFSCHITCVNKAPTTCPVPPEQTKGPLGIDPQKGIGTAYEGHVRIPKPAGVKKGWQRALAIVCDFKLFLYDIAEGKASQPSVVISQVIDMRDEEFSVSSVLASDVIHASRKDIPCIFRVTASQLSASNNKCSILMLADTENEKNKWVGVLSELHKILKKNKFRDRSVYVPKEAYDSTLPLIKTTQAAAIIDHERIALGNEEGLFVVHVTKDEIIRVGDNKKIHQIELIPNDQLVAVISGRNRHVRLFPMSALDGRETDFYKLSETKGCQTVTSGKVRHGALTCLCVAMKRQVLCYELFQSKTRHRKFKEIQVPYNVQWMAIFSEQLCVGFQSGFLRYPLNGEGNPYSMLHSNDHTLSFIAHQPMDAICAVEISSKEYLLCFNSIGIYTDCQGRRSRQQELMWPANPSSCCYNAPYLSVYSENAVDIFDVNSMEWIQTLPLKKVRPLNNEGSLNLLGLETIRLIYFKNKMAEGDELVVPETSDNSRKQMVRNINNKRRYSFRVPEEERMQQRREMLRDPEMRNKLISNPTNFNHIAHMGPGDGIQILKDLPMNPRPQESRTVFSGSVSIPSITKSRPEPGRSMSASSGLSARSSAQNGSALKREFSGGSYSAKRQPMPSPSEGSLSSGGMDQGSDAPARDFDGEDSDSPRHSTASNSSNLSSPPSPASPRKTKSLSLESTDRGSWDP
Conditions: Protein CDC42BPA; average of three replicates. The procedure:
as §1

The target of assay [6] is T6, ~100 representative kinases (Homo sapiens, UniProt P33981).
T6 construct: Recombinant protein kinase domains with a concentration of 2 μM
T6 sequence (P33981 1-857): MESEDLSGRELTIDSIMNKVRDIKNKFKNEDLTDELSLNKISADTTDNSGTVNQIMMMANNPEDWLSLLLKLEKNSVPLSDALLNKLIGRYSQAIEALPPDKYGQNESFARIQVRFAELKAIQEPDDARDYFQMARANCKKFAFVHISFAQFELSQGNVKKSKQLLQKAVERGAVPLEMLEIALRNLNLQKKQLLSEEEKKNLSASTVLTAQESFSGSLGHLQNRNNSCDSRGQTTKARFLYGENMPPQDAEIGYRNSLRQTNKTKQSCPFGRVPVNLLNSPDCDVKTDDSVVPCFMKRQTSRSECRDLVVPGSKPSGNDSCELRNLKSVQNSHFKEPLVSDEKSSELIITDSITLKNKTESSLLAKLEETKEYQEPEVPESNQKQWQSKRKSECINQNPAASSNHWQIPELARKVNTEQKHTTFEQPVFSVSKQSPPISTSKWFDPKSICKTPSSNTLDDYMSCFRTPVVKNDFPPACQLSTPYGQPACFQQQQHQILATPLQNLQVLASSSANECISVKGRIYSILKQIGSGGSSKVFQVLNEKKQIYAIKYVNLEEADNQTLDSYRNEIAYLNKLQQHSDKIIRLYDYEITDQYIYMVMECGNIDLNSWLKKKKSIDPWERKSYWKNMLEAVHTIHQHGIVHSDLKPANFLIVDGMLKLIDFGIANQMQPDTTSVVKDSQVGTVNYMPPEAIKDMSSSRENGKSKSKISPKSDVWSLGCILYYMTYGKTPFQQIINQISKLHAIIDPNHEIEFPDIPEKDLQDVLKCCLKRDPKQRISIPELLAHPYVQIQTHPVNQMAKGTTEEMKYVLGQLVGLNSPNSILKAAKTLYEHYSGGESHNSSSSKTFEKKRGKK
Conditions: Protein TTK; DSF; average of three replicates. As for the experimental part:
as §1

Assay [7] concerns the target T7, ~100 representative kinases (Homo sapiens, UniProt P53355).
T7 construct: Recombinant protein kinase domains with a concentration of 2 μM
Conditions: Protein DAPK1; average of three replicates. The procedure:
as §1

T4 sequence (P49761 whole entry, the tested form may be a part): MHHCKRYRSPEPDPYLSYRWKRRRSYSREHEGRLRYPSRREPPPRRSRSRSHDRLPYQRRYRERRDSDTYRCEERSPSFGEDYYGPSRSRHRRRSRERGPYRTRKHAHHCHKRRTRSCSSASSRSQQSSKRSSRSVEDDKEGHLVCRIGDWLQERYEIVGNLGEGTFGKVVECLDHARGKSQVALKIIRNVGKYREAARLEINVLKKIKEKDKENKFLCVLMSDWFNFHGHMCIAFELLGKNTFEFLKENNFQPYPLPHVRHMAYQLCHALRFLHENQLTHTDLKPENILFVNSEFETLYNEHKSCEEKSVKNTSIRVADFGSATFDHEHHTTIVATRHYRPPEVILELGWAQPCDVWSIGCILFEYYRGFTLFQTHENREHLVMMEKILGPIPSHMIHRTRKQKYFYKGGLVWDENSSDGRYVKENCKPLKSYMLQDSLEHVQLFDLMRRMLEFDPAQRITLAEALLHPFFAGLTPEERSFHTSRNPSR
T7 sequence (P53355 whole entry, the tested form may be a part): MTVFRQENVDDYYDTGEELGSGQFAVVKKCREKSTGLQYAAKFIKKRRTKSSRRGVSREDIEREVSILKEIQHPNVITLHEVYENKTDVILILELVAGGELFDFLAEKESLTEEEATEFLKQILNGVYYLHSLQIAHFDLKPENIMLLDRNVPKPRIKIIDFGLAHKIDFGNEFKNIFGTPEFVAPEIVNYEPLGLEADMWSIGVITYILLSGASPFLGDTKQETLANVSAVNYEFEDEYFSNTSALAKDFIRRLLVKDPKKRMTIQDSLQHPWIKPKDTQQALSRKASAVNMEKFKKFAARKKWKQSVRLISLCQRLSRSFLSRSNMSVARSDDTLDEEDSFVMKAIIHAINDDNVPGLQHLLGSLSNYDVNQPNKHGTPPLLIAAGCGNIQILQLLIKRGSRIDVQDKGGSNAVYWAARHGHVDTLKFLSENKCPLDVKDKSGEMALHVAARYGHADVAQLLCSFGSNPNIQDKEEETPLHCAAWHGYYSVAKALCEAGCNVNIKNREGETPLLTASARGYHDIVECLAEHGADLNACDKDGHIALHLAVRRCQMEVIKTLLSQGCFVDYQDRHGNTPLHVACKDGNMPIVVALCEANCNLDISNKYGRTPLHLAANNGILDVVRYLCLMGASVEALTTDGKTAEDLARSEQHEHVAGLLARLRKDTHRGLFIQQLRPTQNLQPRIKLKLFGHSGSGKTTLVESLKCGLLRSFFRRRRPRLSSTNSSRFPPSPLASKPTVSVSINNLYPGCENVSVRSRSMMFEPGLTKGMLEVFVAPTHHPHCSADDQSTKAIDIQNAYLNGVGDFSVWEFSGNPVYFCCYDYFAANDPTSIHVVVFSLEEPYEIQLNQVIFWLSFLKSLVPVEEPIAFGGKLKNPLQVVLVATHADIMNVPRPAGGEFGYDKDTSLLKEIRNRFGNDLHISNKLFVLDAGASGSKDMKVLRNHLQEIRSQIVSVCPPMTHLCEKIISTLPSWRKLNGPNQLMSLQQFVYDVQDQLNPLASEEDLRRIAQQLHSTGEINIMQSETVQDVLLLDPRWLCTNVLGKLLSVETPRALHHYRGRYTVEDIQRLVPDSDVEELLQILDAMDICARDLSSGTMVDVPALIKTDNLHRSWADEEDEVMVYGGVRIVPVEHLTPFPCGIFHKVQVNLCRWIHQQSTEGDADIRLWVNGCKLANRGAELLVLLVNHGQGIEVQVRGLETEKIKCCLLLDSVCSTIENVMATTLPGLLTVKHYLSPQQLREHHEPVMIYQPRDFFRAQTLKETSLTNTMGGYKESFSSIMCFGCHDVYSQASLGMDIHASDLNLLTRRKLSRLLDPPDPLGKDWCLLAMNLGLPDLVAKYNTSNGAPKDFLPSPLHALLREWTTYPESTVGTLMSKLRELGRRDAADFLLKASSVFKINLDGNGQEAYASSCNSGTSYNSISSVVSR

With `O=C(Nc1cccc(-c2c[nH]c3ncnc(N4CCOCC4)c23)c1)C1(C(=O)Nc2ccc(F)c(Br)c2)CC1` [Compound 19], the dTm in assay [1] is given as 7.49 K; in assay [2], 6.16 K; in assay [3], 2.37 K; in assay [4], 5.09 K; in assay [5] it was 0.14 K; in assay [6] it was 9.93 K. This compound also gave a dTm in assay [7] of -1.32 K.

In the case of `Cc1cc(NC(=O)C2(C(=O)Nc3cccc(-c4c[nH]c5ncnc(N6CCOCC6)c45)c3)CC2)ccc1F` [Compound 20], the dTm in assay [1] is recorded as 8.40 K; in assay [2], 7.49 K; in assay [3], 2.25 K; in assay [4], 5.99 K; in assay [5], -1.13 K; in assay [6], 8.62 K. The dTm in assay [7] is 0.0134 K.

`COc1cc(NC(=O)C2(C(=O)Nc3cccc(-c4c[nH]c5ncnc(N6CCOCC6)c45)c3)CC2)ccc1F` [Compound 21]: the dTm in assay [1] is recorded as 6.06 K; in assay [2], 6.42 K; in assay [3], 0.20 K; in assay [4], 3.11 K; in assay [5] it was -1.17 K; in assay [6] it was 7.84 K. The same compound had a dTm in assay [7] of -1.16 K.

For the compound `CC(C)(C)c1cccc(NC(=O)C2(C(=O)Nc3cccc(-c4c[nH]c5ncnc(N6CCOCC6)c45)c3)CC2)c1` [Compound 22], the dTm in assay [1] is 6.69 K; in assay [2], 5.69 K; in assay [3] it was -0.64 K; in assay [4] it was 4.17 K; in assay [5], -0.53 K; in assay [6], 5.44 K. Also, in assay [7], the dTm is -2.58 K.

With `O=C(Nc1cccc(-c2c[nH]c3ncnc(N4CCOCC4)c23)c1)C1(C(=O)Nc2ccc(F)cc2F)CC1` [Compound 23], the dTm in assay [1] is 6.33 K; in assay [2] it was 5.20 K; in assay [3], -0.31 K; in assay [4], 1.58 K; in assay [5], -1.22 K; in assay [6], -5.86 K. For the same compound, in assay [7], the dTm is -1.28 K.

As for `Cc1cc(F)ccc1NC(=O)C1(C(=O)Nc2cccc(-c3c[nH]c4ncnc(N5CCOCC5)c34)c2)CC1` [Compound 24], the dTm in assay [1] is recorded as 6.56 K; in assay [2] it was 5.80 K; in assay [3] it was -0.51 K; in assay [4] it was 0.69 K; in assay [5] it was -1.23 K; in assay [6], 2.46 K. This compound registered a dTm in assay [7] of -1.06 K.

For the compound `O=C(Nc1cccc(-c2c[nH]c3ncnc(N4CCOCC4)c23)c1)C1(C(=O)Nc2cc(Br)c(F)cc2F)CC1` [Compound 25], the dTm in assay [1] is listed as 6.39 K; in assay [2] it was 5.47 K; in assay [3], -0.61 K; in assay [4] it was 2.08 K; in assay [5] it was -0.57 K; in assay [6], 5.98 K. Further, the dTm in assay [7] is -0.48 K.

In the case of `O=C(Nc1cccc(-c2c[nH]c3ncnc(N4CCOCC4)c23)c1)C1(C(=O)Nc2ccc(F)c(Br)c2F)CC1` [Compound 26], the dTm in assay [1] is on record as 3.83 K; in assay [2], 5.24 K; in assay [3], -0.52 K; in assay [4], 3.24 K; in assay [5] it was -0.44 K; in assay [6] it was 6.98 K. In assay [7], this compound returned a dTm of -0.65 K.

Regarding `O=C(Nc1cc(F)cc(Br)c1)C1(C(=O)Nc2cccc(-c3c[nH]c4ncnc(N5CCOCC5)c34)c2)CC1` [Compound 27], the dTm in assay [1] came out at 4.77 K; in assay [2] it was 5.62 K; in assay [3], 1.21 K; in assay [4] it was 2.41 K; in assay [5], 0.59 K; in assay [6], 4.57 K. The same compound yielded a dTm in assay [7] of -3.19 K.

Consider `CC(C)(C)c1cc(NC(=O)Nc2cccc(-c3c[nH]c4ncnc(N5CCOCC5)c34)c2)n(-c2ccc3ncccc3c2)n1` [Compound 28], for which the dTm in assay [1] is reported as 4.51 K; in assay [2], 6.08 K; in assay [3] it was 4.48 K; in assay [4], 16.34 K; in assay [5], -0.65 K; in assay [6], 7.28 K. This compound also returned a dTm in assay [7] of 2.32 K.

For `Cc1ccc(-n2nc(C(C)(C)C)cc2NC(=O)Nc2cccc(-c3c[nH]c4ncnc(N5CCOCC5)c34)c2)cc1` [Compound 29], the dTm is listed as 4.13 K in assay [1]; 5.30 K in assay [2]; 3.34 K in assay [3]; 14.57 K in assay [4]; -0.10 K in assay [5]; 4.46 K in assay [6]. The dTm in assay [7] came out at 2.62 K.

For `Cc1ccc(-n2nc(C(C)(C)C)cc2NC(=O)Nc2cccc(-c3c[nH]c4nc(Cl)nc(N5CCOCC5)c34)c2)cc1` [Compound 30], the dTm in assay [1] was determined as 1.21 K; in assay [2] it was 1.92 K; in assay [3] it was 0.28 K; in assay [4] it was 3.71 K; in assay [5], 0.77 K; in assay [6], 2.15 K. Besides, the dTm in assay [7] is -3.64 K.

Regarding `CC(=O)N1CCN(c2nc(Cl)nc3[nH]cc(-c4cccc(NC(=O)Nc5cc(C(C)(C)C)nn5-c5ccc(C)cc5)c4)c23)CC1` [Compound 31], the dTm in assay [1] was 0.55 K; in assay [2] it was 1.72 K; in assay [3], -0.15 K; in assay [4], 3.34 K; in assay [5], 0.50 K; in assay [6], 1.71 K. This compound gave a dTm in assay [7] of -1.54 K.

In the case of `CCSc1nc(NC)c2c(-c3cccc(NC(=O)Nc4cc(C(C)(C)C)nn4-c4ccc(C)cc4)c3)c[nH]c2n1` [Compound 32], the dTm was 0.53 K in assay [1]; 0.66 K in assay [2]; -0.0646 K in assay [3]; 0.50 K in assay [4]; 0.69 K in assay [5]; 6.59 K in assay [6]. This compound also displayed a dTm in assay [7] of -0.22 K.
